Measured values as given in article PMC4503722, “Novel Phenotypic Outcomes Identified for a Public Collection of Approved Drugs from a Publicly Accessible Panel of Assays” (PLoS ONE, 2015).
Counter-ions that a name gives are not always drawn. Like-named read-outs stand apart in the source and are kept apart here.

Legend:
[1] = system: HeLa cells; assay: cells; format: cell-based; conditions: read-out: CellCycle G2/M
[2] = system: HCT116; assay: cells; format: cell-based
[3] = system: DLD-1; assay: cells; format: cell-based
[4] = molecular target: T1, hJAK2 (Homo sapiens, UniProt O60674); assay: Cerep LANCE kinase assay hJAK2 (S1 assay 33); format: biochemical; conditions: read-out: JAK2
T1 construct: purchased Cerep (LANCE kinase assay platform, contract assay)
T1 sequence (O60674 whole entry): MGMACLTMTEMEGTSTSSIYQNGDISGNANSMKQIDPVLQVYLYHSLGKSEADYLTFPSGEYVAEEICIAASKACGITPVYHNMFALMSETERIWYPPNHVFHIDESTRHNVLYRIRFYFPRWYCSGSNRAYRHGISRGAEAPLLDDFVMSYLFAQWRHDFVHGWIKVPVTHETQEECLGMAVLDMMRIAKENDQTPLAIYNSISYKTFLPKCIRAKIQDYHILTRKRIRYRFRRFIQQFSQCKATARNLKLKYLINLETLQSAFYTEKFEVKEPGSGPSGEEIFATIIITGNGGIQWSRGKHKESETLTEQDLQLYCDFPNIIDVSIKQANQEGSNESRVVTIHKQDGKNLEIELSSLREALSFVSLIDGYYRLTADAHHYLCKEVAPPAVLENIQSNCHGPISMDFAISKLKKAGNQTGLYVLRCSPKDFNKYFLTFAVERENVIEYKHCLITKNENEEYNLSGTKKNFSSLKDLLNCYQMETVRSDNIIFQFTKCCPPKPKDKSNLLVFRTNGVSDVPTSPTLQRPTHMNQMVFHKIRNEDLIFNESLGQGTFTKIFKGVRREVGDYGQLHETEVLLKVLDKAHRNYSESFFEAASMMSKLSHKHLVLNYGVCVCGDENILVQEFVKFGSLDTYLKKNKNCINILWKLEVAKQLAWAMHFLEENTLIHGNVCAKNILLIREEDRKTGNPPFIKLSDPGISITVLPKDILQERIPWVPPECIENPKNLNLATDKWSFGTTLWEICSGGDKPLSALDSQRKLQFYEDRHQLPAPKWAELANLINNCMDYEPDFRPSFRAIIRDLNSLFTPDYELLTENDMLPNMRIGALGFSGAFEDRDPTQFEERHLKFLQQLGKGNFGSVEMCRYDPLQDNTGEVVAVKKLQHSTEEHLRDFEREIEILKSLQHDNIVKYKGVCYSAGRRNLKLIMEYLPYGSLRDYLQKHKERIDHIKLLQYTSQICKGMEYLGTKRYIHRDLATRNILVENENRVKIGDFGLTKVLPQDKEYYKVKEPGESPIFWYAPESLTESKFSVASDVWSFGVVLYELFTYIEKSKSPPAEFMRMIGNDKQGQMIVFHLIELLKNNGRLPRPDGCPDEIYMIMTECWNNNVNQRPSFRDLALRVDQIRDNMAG

[5] = system: HCT116 cells treated with a GSK3β inhibitor; assay: cells; format: cell-based
[6] = molecular target: T2, hFLT3 (Homo sapiens, UniProt P36888); assay: Cerep LANCE kinase assay hFLT3 (S1 assay 35); format: biochemical; conditions: read-out: FLT3
T2 construct: purchased Cerep (LANCE kinase assay platform, contract assay)
T2 sequence (P36888 27-993): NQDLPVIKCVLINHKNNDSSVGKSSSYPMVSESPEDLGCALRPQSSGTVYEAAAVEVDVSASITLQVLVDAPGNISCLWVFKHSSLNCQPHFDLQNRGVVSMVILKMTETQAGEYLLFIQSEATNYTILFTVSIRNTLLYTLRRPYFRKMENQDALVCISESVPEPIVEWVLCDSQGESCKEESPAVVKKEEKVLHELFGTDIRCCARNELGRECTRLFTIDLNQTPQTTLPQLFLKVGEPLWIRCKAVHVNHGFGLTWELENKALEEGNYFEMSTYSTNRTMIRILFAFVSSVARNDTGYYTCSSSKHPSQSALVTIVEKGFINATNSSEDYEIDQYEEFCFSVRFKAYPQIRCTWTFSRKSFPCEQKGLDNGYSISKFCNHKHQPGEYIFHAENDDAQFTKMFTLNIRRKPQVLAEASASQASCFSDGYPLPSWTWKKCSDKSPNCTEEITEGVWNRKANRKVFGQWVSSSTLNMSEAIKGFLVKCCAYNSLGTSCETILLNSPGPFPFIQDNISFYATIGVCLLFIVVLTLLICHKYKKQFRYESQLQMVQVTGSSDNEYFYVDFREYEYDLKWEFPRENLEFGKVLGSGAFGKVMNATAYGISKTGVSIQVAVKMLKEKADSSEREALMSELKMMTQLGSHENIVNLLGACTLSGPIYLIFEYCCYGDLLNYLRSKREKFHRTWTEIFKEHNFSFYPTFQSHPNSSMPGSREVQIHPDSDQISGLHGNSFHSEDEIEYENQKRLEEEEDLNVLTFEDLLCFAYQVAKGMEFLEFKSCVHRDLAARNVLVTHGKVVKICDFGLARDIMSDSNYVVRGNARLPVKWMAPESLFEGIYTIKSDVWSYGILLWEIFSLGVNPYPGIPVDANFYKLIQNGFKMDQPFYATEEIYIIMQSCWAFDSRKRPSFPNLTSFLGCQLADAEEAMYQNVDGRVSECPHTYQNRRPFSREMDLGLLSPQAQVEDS

[7] = molecular target: T3, hp70S6K1 (RPS6KB1) (Homo sapiens, UniProt P23443); assay: Cerep LANCE kinase assay hp70S6K1 (S1 assay 31); format: biochemical; conditions: read-out: p70S6K1
T3 construct: purchased Cerep (LANCE kinase assay platform, contract assay)
T3 sequence (P23443 whole entry): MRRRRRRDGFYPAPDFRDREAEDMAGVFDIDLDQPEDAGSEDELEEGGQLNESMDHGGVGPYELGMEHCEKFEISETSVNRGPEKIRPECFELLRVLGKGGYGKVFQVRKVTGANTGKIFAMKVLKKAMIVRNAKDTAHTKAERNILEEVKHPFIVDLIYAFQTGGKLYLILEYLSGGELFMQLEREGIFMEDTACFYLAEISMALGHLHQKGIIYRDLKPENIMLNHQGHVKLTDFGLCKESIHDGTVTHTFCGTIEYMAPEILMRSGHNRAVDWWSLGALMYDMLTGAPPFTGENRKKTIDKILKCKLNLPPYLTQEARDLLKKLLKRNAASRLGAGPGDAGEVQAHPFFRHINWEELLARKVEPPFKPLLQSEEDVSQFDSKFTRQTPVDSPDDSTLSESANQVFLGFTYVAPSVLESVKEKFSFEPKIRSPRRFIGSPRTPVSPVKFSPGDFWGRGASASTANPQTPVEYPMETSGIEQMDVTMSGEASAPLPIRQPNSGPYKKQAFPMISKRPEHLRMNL

[8] = system: nuclear β-catenin in C2C12 cells; assay: cells; format: cell-based
[9] = system: SW480; assay: cells; format: cell-based
[10] = system: NCI-H716 cells; assay: cells; format: cell-based, Human
[11] = system: endothelial tube formation in co-cultures of ECFCs and ADSCs treated with VEGF; assay: cells; format: cell-based, human
[12] = system: INS-1E cells; assay: cells; format: cell-based, rat
[13] = molecular target: T4, hGSK3b (Homo sapiens, UniProt P49841); assay: Cerep LANCE kinase assay hGSK3b (S1 assay 34); format: biochemical; conditions: read-out: GSK3b
T4 construct: purchased Cerep (LANCE kinase assay platform, contract assay)
T4 sequence (P49841 whole entry): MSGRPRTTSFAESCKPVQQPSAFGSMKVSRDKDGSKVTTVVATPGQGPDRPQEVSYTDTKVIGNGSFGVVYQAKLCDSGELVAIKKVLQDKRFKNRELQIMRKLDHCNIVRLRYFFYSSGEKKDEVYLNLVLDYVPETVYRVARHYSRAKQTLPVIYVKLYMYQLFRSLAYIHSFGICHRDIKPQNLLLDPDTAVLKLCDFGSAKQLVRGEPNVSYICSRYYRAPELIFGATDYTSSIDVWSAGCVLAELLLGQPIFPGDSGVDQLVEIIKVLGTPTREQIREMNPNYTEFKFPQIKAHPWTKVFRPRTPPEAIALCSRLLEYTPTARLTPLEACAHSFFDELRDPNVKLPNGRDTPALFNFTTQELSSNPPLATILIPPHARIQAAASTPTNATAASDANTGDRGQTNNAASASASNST

[14] = molecular target: T5, hKDR (Homo sapiens, UniProt P35968); assay: Cerep LANCE kinase assay hKDR (S1 assay 32); format: biochemical
T5 construct: purchased Cerep (LANCE kinase assay platform, contract assay)
T5 sequence (P35968 20-1356): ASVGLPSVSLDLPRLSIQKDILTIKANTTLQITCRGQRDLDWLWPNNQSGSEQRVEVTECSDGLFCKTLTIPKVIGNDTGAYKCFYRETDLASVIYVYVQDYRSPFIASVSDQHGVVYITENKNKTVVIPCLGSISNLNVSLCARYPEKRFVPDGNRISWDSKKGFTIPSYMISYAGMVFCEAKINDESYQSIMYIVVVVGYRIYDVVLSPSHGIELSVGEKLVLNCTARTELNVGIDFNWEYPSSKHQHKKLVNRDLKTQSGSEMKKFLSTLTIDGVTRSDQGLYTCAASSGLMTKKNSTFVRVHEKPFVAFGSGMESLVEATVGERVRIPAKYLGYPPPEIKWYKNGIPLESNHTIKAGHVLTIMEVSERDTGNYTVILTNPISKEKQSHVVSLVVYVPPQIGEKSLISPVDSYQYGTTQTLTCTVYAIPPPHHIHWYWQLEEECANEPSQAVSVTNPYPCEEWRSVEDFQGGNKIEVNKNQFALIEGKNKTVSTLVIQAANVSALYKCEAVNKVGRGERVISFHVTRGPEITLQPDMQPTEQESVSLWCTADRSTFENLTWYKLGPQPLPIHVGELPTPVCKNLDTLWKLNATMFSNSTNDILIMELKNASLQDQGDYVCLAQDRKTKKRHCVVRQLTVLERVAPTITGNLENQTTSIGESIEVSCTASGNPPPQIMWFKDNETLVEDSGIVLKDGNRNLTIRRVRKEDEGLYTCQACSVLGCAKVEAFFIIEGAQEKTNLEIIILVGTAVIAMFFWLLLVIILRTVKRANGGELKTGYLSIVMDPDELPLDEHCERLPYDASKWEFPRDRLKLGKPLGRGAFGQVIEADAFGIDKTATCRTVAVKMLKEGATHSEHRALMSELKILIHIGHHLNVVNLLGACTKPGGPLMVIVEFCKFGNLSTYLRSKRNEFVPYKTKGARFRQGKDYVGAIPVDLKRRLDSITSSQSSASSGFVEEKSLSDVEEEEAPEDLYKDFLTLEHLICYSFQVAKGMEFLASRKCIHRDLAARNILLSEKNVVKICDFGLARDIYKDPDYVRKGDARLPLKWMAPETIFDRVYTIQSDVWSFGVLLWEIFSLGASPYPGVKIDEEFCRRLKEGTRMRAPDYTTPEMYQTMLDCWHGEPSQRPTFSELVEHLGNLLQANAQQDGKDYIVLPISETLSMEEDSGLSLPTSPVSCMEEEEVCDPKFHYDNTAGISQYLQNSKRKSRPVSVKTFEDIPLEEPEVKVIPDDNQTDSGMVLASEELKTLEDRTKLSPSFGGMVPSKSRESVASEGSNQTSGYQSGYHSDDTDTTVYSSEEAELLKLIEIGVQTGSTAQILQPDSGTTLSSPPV

[15] = S2 Table, HeLa, 20 = no response at highest concentration
[16] = basal, HCT116, read-out: Basal_Viability ATP HCT116
[17] = basal, DLD-1, read-out: Basal_Viability ATP DLD-1
[18] = HCT116 pretreated with GSK3b inhibitor, read-out: GSK3b inh pretreated_Viability ATP HCT116
[19] = basal, SW480, read-out: Basal_Viability ATP SW480
[20] = S2 Table; module primary assay; 20 / 20.1 codes per legend; read-out: GLP 1 Secretion
[21] = S2 Table; module primary assay; 20 / 20.1 codes per legend; read-out: Insulin Secretion
[22] = Homo sapiens, HCT-116, read-out: Basal_Viability ATP HCT116
[23] = Homo sapiens, DLD-1, read-out: Basal_Viability ATP DLD-1
[24] = Homo sapiens, HCT-116, read-out: GSK3b inh pretreated_Viability ATP HCT116
[25] = Mus musculus, C2C12, read-out: Wnt Pathway
[26] = Homo sapiens, SW480, read-out: Basal_Viability ATP SW480
[27] = Homo sapiens, NCI-H716, read-out: GLP 1 Secretion
[28] = Homo sapiens, read-out: Anti-Angiogenesis
[29] = Rattus norvegicus, INS-1E, read-out: Insulin Secretion
[30] = Homo sapiens, HeLa, IC50 / EC50, HeLa
[31] = Homo sapiens, HCT-116, basal, read-out: Basal_Viability ATP HCT116
[32] = Homo sapiens, DLD-1, basal, read-out: Basal_Viability ATP DLD-1
[33] = Mus musculus, C2C12, IC50 / EC50; C2C12 beta-catenin translocation; read-out: Wnt Pathway
[34] = Homo sapiens, SW480, basal, read-out: Basal_Viability ATP SW480
[35] = Homo sapiens; IC50 / EC50; NCI-H716; read-out: GLP 1 Secretion
[36] = Homo sapiens, IC50 / EC50; endothelial tube area, ADSC/ECFC co-culture; read-out: Anti-Angiogenesis
[37] = Rattus norvegicus; IC50 / EC50; INS-1E; read-out: Insulin Secretion

Compound	IC50 ([4]; kinase assay) [µM]	IC50 ([6]; kinase assay) [µM]	IC50 ([7]; kinase assay) [µM]	EC50 ([8]; read-out: Wnt Pathway) [µM]	IC50 ([13]; kinase assay) [µM]	IC50 ([14]; kinase assay, read-out: KDR) [µM]	EC50 ([1]; Homo sapiens, HeLa) [µM]	IC50 [2, 22] [µM]	IC50 [3, 23] [µM]	IC50 [4] [µM]	IC50 [5, 24] [µM]	IC50 [6] [µM]	IC50 [7] [µM]	EC50 [8, 25] [µM]	IC50 [9, 26] [µM]	EC50 [10, 27] [µM]	IC50 [11, 28] [µM]	EC50 [12, 29] [µM]	IC50 [13] [µM]	IC50 ([14]; read-out: KDR) [µM]	also measured
C[n+]1c2cc(N)ccc2cc2ccc(N)cc21 [Acriflavinium chloride]	> 20	> 20	6.57	1.6	> 20	> 20	–	–	–	–	–	–	–	–	–	–	–	–	–	–	EC50 [1, 15]: > 10 µM; IC50 [2, 16]: 10.3 µM; IC50 [3, 17]: 4.03 µM; IC50 [5, 18]: 4.36 µM; IC50 [9, 19]: 1.26 µM; EC50 [10, 20]: > 10 µM; IC50 ([11]; S2 Table; module primary assay; 20 = no response at highest concentration, 20.1 = inactive in single concentration testing; read-out: Anti-Angiogenesis): > 10 µM; EC50 [12, 21]: > 10 µM
Nc1ncnc2c1ncn2CCOCP(=O)(O)O [Adefovir]	–	–	–	–	–	–	> 10	9.01	2.68	> 20	0.584	> 20	> 20	0.387	2.77	> 10	0.391	> 10	> 20	> 20	–
C[C@@]12C(=O)OC(=O)[C@]1(C)[C@H]1CC[C@@H]2O1 [Cantharidine]	> 20	> 20	> 20	–	> 20	> 20	–	–	–	–	–	–	–	–	–	–	–	–	–	–	EC50 ([1]; Homo sapiens, S2 Table, HeLa, 20 = no response at highest concentration): > 10 µM; IC50 ([2]; Homo sapiens, HCT-116, basal, HCT116, read-out: Basal_Viability ATP HCT116): 7.71 µM; IC50 ([3]; Homo sapiens, basal, DLD-1, read-out: Basal_Viability ATP DLD-1): 1.12 µM; IC50 ([5]; Homo sapiens, HCT-116, HCT116 pretreated with GSK3b inhibitor, read-out: GSK3b inh pretreated_Viability ATP HCT116): 3.03 µM; EC50 ([8]; Mus musculus, C2C12; read-out: Wnt Pathway): 1.49 µM; IC50 ([9]; Homo sapiens, basal, SW480, read-out: Basal_Viability ATP SW480): 1.86 µM; EC50 ([10]; Homo sapiens, NCI-H716; read-out: GLP 1 Secretion): 6.68 µM; IC50 ([11]; Homo sapiens; read-out: Anti-Angiogenesis): 1.23 µM; EC50 ([12]; Rattus norvegicus, INS-1E; read-out: Insulin Secretion): > 10 µM
CCCCCCNC(=O)n1cc(F)c(=O)[nH]c1=O [Carmofur]	–	–	–	–	–	–	–	–	–	> 20	–	> 20	> 20	–	–	–	–	–	> 20	> 20	EC50 [1, 30]: > 10 µM; IC50 [2, 31]: > 20 µM; IC50 [3, 32]: > 20 µM; IC50 ([5]; Homo sapiens, HCT-116, GSK3b inhibitor pretreated, read-out: GSK3b inh pretreated_Viability ATP HCT116): 10.5 µM; EC50 [8, 33]: 4.98 µM; IC50 [9, 34]: 10.6 µM; EC50 [10, 35]: > 10 µM; IC50 [11, 36]: 4.49 µM; EC50 [12, 37]: > 10 µM
[O-][n+]1ccccc1SSc1cccc[n+]1[O-] [Dipyrithione magnesium sulfate]	–	–	–	0.131	–	–	–	–	–	> 20	–	> 20	> 20	–	–	–	–	–	> 20	> 20	EC50 [1]: > 10 µM; IC50 ([2]; read-out: Basal_Viability ATP HCT116): 20 µM; IC50 ([3]; read-out: Basal_Viability ATP DLD-1): > 20 µM; IC50 ([5]; read-out: GSK3b inh pretreated_Viability ATP HCT116): > 20 µM; IC50 ([9]; read-out: Basal_Viability ATP SW480): > 20 µM; EC50 ([10]; read-out: GLP 1 Secretion): > 10 µM; IC50 ([11]; read-out: Anti-Angiogenesis): 0.719 µM; EC50 ([12]; read-out: Insulin Secretion): > 10 µM
CCCCCCCCCCCCCCCCCCNC(=O)OC1CCN(C(=O)OC[C@H](COC(=O)N(Cc2cccc[n+]2CC)C(=O)c2ccccc2OC)OC)CC1 [E-5880]	–	–	–	–	–	–	–	–	–	> 20	–	> 20	> 20	–	–	–	–	–	> 20	> 20	EC50 ([1]; IC50 / EC50, HeLa): > 10 µM; IC50 ([2]; basal, read-out: Basal_Viability ATP HCT116): 4.11 µM; IC50 ([3]; basal, read-out: Basal_Viability ATP DLD-1): 3.28 µM; IC50 ([5]; GSK3b inhibitor pretreated, read-out: GSK3b inh pretreated_Viability ATP HCT116): 4.42 µM; EC50 ([8]; IC50 / EC50; C2C12 beta-catenin translocation; read-out: Wnt Pathway): > 10 µM; IC50 ([9]; basal, read-out: Basal_Viability ATP SW480): 0.543 µM; EC50 ([10]; IC50 / EC50; NCI-H716; read-out: GLP 1 Secretion): 9.52 µM; IC50 ([11]; IC50 / EC50; endothelial tube area, ADSC/ECFC co-culture; read-out: Anti-Angiogenesis): 1.5 µM; EC50 ([12]; IC50 / EC50; INS-1E; read-out: Insulin Secretion): > 20 µM
CC[C@@]1(O)C(=O)OCc2c1cc1n(c2=O)Cc2c-1nc1ccccc1c2/C=N/OC(C)(C)C [Gimatecan]	–	–	–	–	–	–	–	–	–	> 20	0.0667	> 20	> 20	–	–	–	–	–	> 20	> 20	EC50 [1, 30]: > 10 µM; IC50 [2, 31]: 0.0667 µM; IC50 [3, 32]: 0.315 µM; EC50 [8, 33]: 0.0032 µM; IC50 [9, 34]: 0.222 µM; EC50 [10, 35]: > 10 µM; IC50 [11, 36]: 0.002 µM; EC50 [12, 37]: > 10 µM
CCN(CC)CCNc1ccc(CO)c2sc3ccccc3c(=O)c12 [Hycanthonum]	> 20	> 20	17.1	2.67	> 20	> 20	–	–	–	–	–	–	–	–	–	–	–	–	–	–	EC50 [1, 15]: > 10 µM; IC50 [2, 16]: 8.59 µM; IC50 [3, 17]: > 20 µM; IC50 [5, 18]: > 20 µM; IC50 [9, 19]: 6.84 µM; EC50 [10, 20]: > 10 µM; IC50 ([11]; read-out: Anti-Angiogenesis): 8.35 µM; EC50 [12, 21]: > 10 µM
CC(=O)[C@]1(O)Cc2c(O)c3c(c(O)c2[C@@H](O[C@H]2C[C@H](N)[C@H](O)[C@H](C)O2)C1)C(=O)c1ccccc1C3=O [Idarubicin]	> 20	> 20	> 20	–	> 20	> 20	> 10	0.0667	0.387	–	0.1	–	–	0.1	4.75	> 10	0.0208	> 10	–	–	–
COC(=O)Nc1nc2ccc(C(=O)c3ccccc3)cc2[nH]1 [Mebendazole]	> 20	> 20	> 20	–	> 20	–	0.08	8.26	10.1	–	> 20	–	–	0.245	> 20	> 10	0.37	> 10	–	–	IC50 [14]: 1.43 µM
